From patent US6346615B1, “Chemiluminescent 1,2-dioxetanes” (Tropix, Inc., priority 1989, dated 2002)

Legend:
alkaline phosphatase [1] = test: Quantum yield determination of dioxetane chemiluminescence after alkaline phosphatase addition; assay type: biochemical; settings: 0.1M DEA, pH, 25° C., dioxetane concentration 3.7 × 10^−7M to 6 × 10^−6M
Description: Various dioxetanes within the scope of this invention have been prepared and tested for essential properties, such as quantum yield (performed by an independent laboratory according to the procedure listed below), T½ and the emission wavelength maxima. These dioxetanes are identified by number, and in the tables following after the number, the identity of the substituent on the adamantyl ring, if any followed by the identity of the Z substituent is given. In the compounds tested, X is phosphate. Values for quantum yield and T½ are obtained both for the dioxetane along in 0.1 molar DEA, and in the presence of an enhancement agent, Sapphire II.
[…] […] […] The tube was then placed in MGM Optocomp® I luminometer and the light signal was measured at 1 sec integration times. […] The total counts for the dioxetane were determined from the intensity data. Total counts observed for a given concentration of dioxetane is the product of Photon Detection Efficiency (PDE) of the luminometer, the quantum yield of dioxetane and the number of molecules capable of emitting light (concentration of dephosphorylated dioxetanes). PDE for the MGM Optocomp® I luminometer was determined to be 2.56×10^−3, measured with a Biolink® absolute standard and utilizing the known spectral response of the luminometer's PMT and the known emission spectrum of the dioxetanes. The quantum yield is calculated by dividing the total counts measured by the PDE and the concentration of the dioxetane.

alkaline phosphatase [2] = test: Chemiluminescence emission wavelength maximum (Spex Fluorolog); assay type: biochemical; settings: for μL em: 0.1M DEA, pH, 25° C., dioxetane concentration 3.7 × 10^−7M to 6 × 10^−6M; for Emission Max, nm, +BDMQ: in the presence of BDMQ; for Emission Max, nm, No Addition: no enhancement agent; for Emission Max, nm, On Nylon: on a nylon membrane
Protocol: […] The solution was equilibrated 5 minutes in a Spex Fluorolog Fluorimeter and then scanned 5 times at 0.5 sec/nm for chemiluminescent emission. The chemiluminescence emission wavelength maximum was recorded.

SMILES: COC1(c2cc(Cl)cc(OP(=O)([O-])[O][NaH2-2])c2)OOC12C1CC3CC2CC(Cl)(C3)C1.[Na+] (stereo not drawn) [Dioxetane 128-87, Disodium 3-chloro-5-(methoxyspiro(1,2-dioxetane-3,2′-(5-chloro-)tricyclo-[3.3.1.1^3,7]-decan]-4-yl)-1-phenyl Phosphate]
- Quantum Yield (alkaline phosphatase [1]): 1.2 × 10^−4
- Quantum Yield (alkaline phosphatase [1]; second table): 1.2 × 10^−4
- μL em (alkaline phosphatase [2]): 470
- Emission Max, nm, +BDMQ (alkaline phosphatase [2]): 464 nm
- Emission Max, nm, No Addition (alkaline phosphatase [2]): 470 nm
- Emission Max, nm, On Nylon (alkaline phosphatase [2]): 459 nm
- μL em (alkaline phosphatase [2]; second table): 470

SMILES: COC1(c2cccc(OP(=O)(O)O)c2)OOC12C1CC3CC(C1)CC2C3 (stereo not drawn) [AMPPD, 3-(2′-spiroadamantane)4-methoxy-4-(3″-phosphoryloxy)phenyl-1,2-dioxetane, reference compound]
- Quantum Yield (alkaline phosphatase [1]): 1.5 × 10^−5
- Quantum Yield (alkaline phosphatase [1]; second table): 1.5 × 10^−5
- μL em (alkaline phosphatase [2]): 477
- μL em (alkaline phosphatase [2]; second table): 477

SMILES: COc1cc(OP(=O)([O-])[O][NaH2-2])cc(C2(OC)OOC23C2CC4CC(C2)CC3C4)c1.[Na+] (stereo not drawn) [Dioxetane 140-20, Disodium 5-methoxy-3-(methoxyspiro(1,2-dioxetane-3,2′-tricyclo[3.3.1.1^3,7]-decan]-4-yl)-1-phenyl Phosphate]
- Quantum Yield (alkaline phosphatase [1]): 1.5 × 10^−5
- Quantum Yield (alkaline phosphatase [1]; second table): 1.5 × 10^−5
- μL em (alkaline phosphatase [2]): 476
- Emission Max, nm, +BDMQ (alkaline phosphatase [2]): 466 nm
- Emission Max, nm, No Addition (alkaline phosphatase [2]): 476 nm
- Emission Max, nm, On Nylon (alkaline phosphatase [2]): 461 nm
- μL em (alkaline phosphatase [2]; second table): 476

SMILES: COc1cc(OP(=O)([O-])[O][NaH2-2])cc(C2(OC)OOC23C2CC4CC3CC(Cl)(C4)C2)c1.[Na+] (stereo not drawn) [Dioxetane 140-17, Disodium 5-methoxy-3-(methoxyspiro(1,2-dioxetane-3,2′-(5-chloro-)tricyclo-[3.3.1.1^3,7]-decan]-4-yl)-1-phenyl Phosphate]
- Quantum Yield (alkaline phosphatase [1]): 2.3 × 10^−5
- Quantum Yield (alkaline phosphatase [1]; second table): 2.3 × 10^−5
- μL em (alkaline phosphatase [2]): 475
- Emission Max, nm, +BDMQ (alkaline phosphatase [2]): 464 nm
- Emission Max, nm, No Addition (alkaline phosphatase [2]): 475 nm
- Emission Max, nm, On Nylon (alkaline phosphatase [2]): 463 nm
- μL em (alkaline phosphatase [2]; second table): 475

SMILES: COC1(c2cc(Cl)cc(OP(=O)([O-])[O][NaH2-2])c2)OOC12C1CC3CC(C1)CC2C3.[Na+] (stereo not drawn) [Dioxetane 128-70, Disodium 3-chloro-5-(methoxyspiro(1,2-dioxetane-3,2′-tricylo[3.3.1.1^3,7]-decan]-4-yl)-1-phenyl Phosphate]
- Quantum Yield (alkaline phosphatase [1]): 1.4 × 10^−4
- Quantum Yield (alkaline phosphatase [1]; second table): 1.4 × 10^−4
- μL em (alkaline phosphatase [2]): 471
- Emission Max, nm, +BDMQ (alkaline phosphatase [2]): 463 nm
- Emission Max, nm, No Addition (alkaline phosphatase [2]): 471 nm
- Emission Max, nm, On Nylon (alkaline phosphatase [2]): 461 nm
- μL em (alkaline phosphatase [2]; second table): 471

SMILES: COC1(c2cccc(OP(=O)(O)O)c2)OOC12C1CC3CC2CC(Cl)(C3)C1 (stereo not drawn) [CSPD, reference compound]
- Quantum Yield (alkaline phosphatase [1]): 5.2 × 10^−5
- Quantum Yield (alkaline phosphatase [1]; second table): 5.2 × 10^−5
- μL em (alkaline phosphatase [2]): 475
- μL em (alkaline phosphatase [2]; second table): 475
